Measured values published in patent US20230085307A1, “PYRIDAZINONE COMPOUND AND HERBICIDE” (NISSAN CHEMICAL CORPORATION, priority 2019, published 2023).

Tests used:
rice flat sedge = test: Test Example 3: herbicidal effect by foliage application, Wagner pot (Table 18, symbol E); type: in vivo, rice flat sedge (Cyperus iria); conditions: 320 g/ha
In short: (§1)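 Plants were sown in alluvial soil held under 0.1–0.5 cm standing water and grown 14 days in a greenhouse at 25–30 °C. An emulsifiable formulation, water-diluted to the set dose, was then sprayed onto the foliage, and effects were scored three weeks later using previously defined criteria.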

lambsquarters [1] = test: Test Example 4: herbicidal effect by soil treatment (Table 19, symbol O); type: in vivo, lambsquarters (Chenopodium album); conditions: amount of applied herbicide 320 g/ha
In short: (§2)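 In this soil treatment, the formulated compound reached the seeds only through the soil: seeds were buried about 1.5 cm deep in sterilized diluvial soil, then the diluted emulsion was sprayed over the surface. After three weeks at 25° C. to 30° C. in a greenhouse, effects were graded on criteria from an earlier test.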

oval-leafed pondweed = test: Test Example 1: herbicidal activity, application before weed generation under submerged conditions (Table 16, symbol C); type: in vivo, oval-leafed pondweed (Monochoria vaginalis); conditions: amount of applied herbicide 320 g/ha
In short: (§3)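 Submerged Wagner pots (alluvial soil, 4 cm water) sown with weed seeds and planted with 2.5-leaf rice seedlings; emulsifiable concentrate diluted in water applied to water surface on sowing day. Held in greenhouse at 25-30 °C; injury scored 0-5 by herbicidal rate after three weeks.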

late watergrass = test: Test Example 1: herbicidal activity, application before weed generation under submerged conditions (Table 16, symbol A); type: in vivo, late watergrass (Echinochloa oryzicola); conditions: amount of applied herbicide 320 g/ha
In short: as §3

blackgrass [2] = test: Test Example 4: herbicidal effect by soil treatment (Table 19, symbol J); type: in vivo, blackgrass (Alopecurus myosuroides); conditions: amount of applied herbicide 320 g/ha
In short: as §2

windgrass [3] = test: Test Example 5: herbicidal effect by foliage application, plastic box (Table 20, symbol L); type: in vivo, windgrass (Apera spica-venti); conditions: amount of applied herbicide 320 g/ha; foliage application after 14-day growth; evaluated three weeks after application
In short: (§4)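 Plants were sown into sterilized diluvial soil under about 1.5 cm cover and kept in a greenhouse at 25° C. to 30° C. Fourteen days on, foliage received an even spray of the diluted emulsion. Herbicidal or crop effect was judged three weeks afterwards.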

Italian ryegrass [4] = test: Test Example 4: herbicidal effect by soil treatment (Table 19, symbol K); type: in vivo, Italian ryegrass (Lolium multiflorum); conditions: amount of applied herbicide 320 g/ha
In short: as §2

persian speedwell [5] = test: Test Example 5: herbicidal effect by foliage application, plastic box (Table 20, symbol R); type: in vivo, Persian speedwell (Veronica persica); conditions: amount of applied herbicide 320 g/ha; foliage application after 14-day growth; evaluated three weeks after application
In short: as §4

green foxtail [6] = test: Test Example 5: herbicidal effect by foliage application, plastic box (Table 20, symbol G); type: in vivo, green foxtail (Setaria viridis); conditions: amount of applied herbicide 320 g/ha; foliage application after 14-day growth; evaluated three weeks after application
In short: as §4

false cleavers = test: Test Example 4: herbicidal effect by soil treatment (Table 19, symbol Q); type: in vivo, false cleavers (Galium spurium); conditions: amount of applied herbicide 320 g/ha
In short: as §2

redroot pigweed [7] = test: Test Example 4: herbicidal effect by soil treatment (Table 19, symbol N); type: in vivo, redroot pigweed (Amaranthus retroflexus); conditions: amount of applied herbicide 320 g/ha
In short: as §2

velvetleaf [8] = test: Test Example 5: herbicidal effect by foliage application, plastic box (Table 20, symbol M); type: in vivo, velvetleaf (Abutilon theophrasti); conditions: amount of applied herbicide 320 g/ha; foliage application after 14-day growth; evaluated three weeks after application
In short: as §4

barnyard grass [9] = test: Test Example 5: herbicidal effect by foliage application, plastic box (Table 20, symbol H); type: in vivo, barnyard grass (Echinochloa crus-galli); conditions: amount of applied herbicide 320 g/ha; foliage application after 14-day growth; evaluated three weeks after application
In short: as §4

wild oat [10] = test: Test Example 5: herbicidal effect by foliage application, plastic box (Table 20, symbol I); type: in vivo, wild oat (Avena fatua); conditions: amount of applied herbicide 320 g/ha; foliage application after 14-day growth; evaluated three weeks after application
In short: as §4

velvetleaf [11] = test: Test Example 4: herbicidal effect by soil treatment (Table 19, symbol M); type: in vivo, velvetleaf (Abutilon theophrasti); conditions: amount of applied herbicide 320 g/ha
In short: as §2

blackgrass [12] = test: Test Example 5: herbicidal effect by foliage application, plastic box (Table 20, symbol J); type: in vivo, blackgrass (Alopecurus myosuroides); conditions: amount of applied herbicide 320 g/ha; foliage application after 14-day growth; evaluated three weeks after application
In short: as §4

chickweed [13] = test: Test Example 5: herbicidal effect by foliage application, plastic box (Table 20, symbol P); type: in vivo, common chickweed (Stellaria media); conditions: amount of applied herbicide 320 g/ha; foliage application after 14-day growth; evaluated three weeks after application
In short: as §4

chickweed [14] = test: Test Example 4: herbicidal effect by soil treatment (Table 19, symbol P); type: in vivo, common chickweed (Stellaria media); conditions: amount of applied herbicide 320 g/ha
In short: as §2

Chinese sprangletop = test: Test Example 3: herbicidal effect by foliage application, Wagner pot (Table 18, symbol D); type: in vivo, chinese sprangletop (Leptochloa chinensis); conditions: 320 g/ha
In short: as §1

Japanese bulrush = test: Test Example 1: herbicidal activity, application before weed generation under submerged conditions (Table 16, symbol B); type: in vivo, Japanese bulrush (Schoenoplectus juncoides); conditions: amount of applied herbicide 320 g/ha
In short: as §3

windgrass [15] = test: Test Example 4: herbicidal effect by soil treatment (Table 19, symbol L); type: in vivo, windgrass (Apera spica-venti); conditions: amount of applied herbicide 320 g/ha
In short: as §2

barnyard grass [16] = test: Test Example 3: herbicidal effect by foliage application, Wagner pot (Table 18, symbol H); type: in vivo, barnyard grass (Echinochloa crus-galli); conditions: 320 g/ha
In short: as §1

wild oat [17] = test: Test Example 4: herbicidal effect by soil treatment (Table 19, symbol I); type: in vivo, wild oat (Avena fatua); conditions: amount of applied herbicide 320 g/ha
In short: as §2

green foxtail [18] = test: Test Example 4: herbicidal effect by soil treatment (Table 19, symbol G); type: in vivo, green foxtail (Setaria viridis); conditions: amount of applied herbicide 320 g/ha
In short: as §2

persian speedwell [19] = test: Test Example 4: herbicidal effect by soil treatment (Table 19, symbol R); type: in vivo, Persian speedwell (Veronica persica); conditions: amount of applied herbicide 320 g/ha
In short: as §2

southern crabgrass [20] = test: Test Example 4: herbicidal effect by soil treatment (Table 19, symbol F); type: in vivo, southern crabgrass (Digitaria ciliaris); conditions: amount of applied herbicide 320 g/ha
In short: as §2

southern crabgrass [21] = test: Test Example 5: herbicidal effect by foliage application, plastic box (Table 20, symbol F); type: in vivo, southern crabgrass (Digitaria ciliaris); conditions: amount of applied herbicide 320 g/ha; foliage application after 14-day growth; evaluated three weeks after application
In short: as §4

lambsquarters [22] = test: Test Example 5: herbicidal effect by foliage application, plastic box (Table 20, symbol O); type: in vivo, lambsquarters (Chenopodium album); conditions: amount of applied herbicide 320 g/ha; foliage application after 14-day growth; evaluated three weeks after application
In short: as §4

Italian ryegrass [23] = test: Test Example 5: herbicidal effect by foliage application, plastic box (Table 20, symbol K); type: in vivo, Italian ryegrass (Lolium multiflorum); conditions: amount of applied herbicide 320 g/ha; foliage application after 14-day growth; evaluated three weeks after application
In short: as §4

redroot pigweed [24] = test: Test Example 5: herbicidal effect by foliage application, plastic box (Table 20, symbol N); type: in vivo, redroot pigweed (Amaranthus retroflexus); conditions: amount of applied herbicide 320 g/ha; foliage application after 14-day growth; evaluated three weeks after application
In short: as §4

barnyard grass [25] = test: Test Example 4: herbicidal effect by soil treatment (Table 19, symbol H); type: in vivo, barnyard grass (Echinochloa crus-galli); conditions: amount of applied herbicide 320 g/ha
In short: as §2

CCCC(=O)Oc1c(C)nn(C)c(=O)c1-c1c(-c2ccc3c(c2)OCO3)sc2cc(F)c(F)cc12 [5-036]
herbicidal effect on rice flat sedge (E) (rice flat sedge): 0 (Herbicidal rate of 5% or less (almost no effect)) | O: lambsquarters, herbicidal effect grade (lambsquarters [1]): 3 (Herbicidal rate of 40% or more and less than 70%) | Herbicidal effect, C: oval-leafed pondweed (oval-leafed pondweed): 2 (Herbicidal rate of 20% or more and less than 40%) | Herbicidal effect, A: late watergrass (late watergrass): 2 (Herbicidal rate of 20% or more and less than 40%) | J: blackgrass, herbicidal effect grade (blackgrass [2]): 0 (Herbicidal rate of 5% or less (almost no effect)) | Herbicidal effect by foliage application, L: windgrass (windgrass [3]): 0 (Herbicidal rate of 5% or less (almost no effect)) | K: Italian ryegrass, herbicidal effect grade (Italian ryegrass [4]): 0 (Herbicidal rate of 5% or less (almost no effect)) | Herbicidal effect by foliage application, R: persian speedwell (persian speedwell [5]): 5 (Herbicidal rate of 90% or more (almost completely withered)) | Herbicidal effect by foliage application, G: green foxtail (green foxtail [6]): 0 (Herbicidal rate of 5% or less (almost no effect)) | Q: false cleavers, herbicidal effect grade (false cleavers): 0 (Herbicidal rate of 5% or less (almost no effect)) | N: redroot pigweed, herbicidal effect grade (redroot pigweed [7]): 4 (Herbicidal rate of 70% or more and less than 90%) | Herbicidal effect by foliage application, M: velvetleaf (velvetleaf [8]): 3 (Herbicidal rate of 40% or more and less than 70%) | Herbicidal effect by foliage application, H: barnyard grass (barnyard grass [9]): 0 (Herbicidal rate of 5% or less (almost no effect)) | Herbicidal effect by foliage application, I: wild oat (wild oat [10]): 0 (Herbicidal rate of 5% or less (almost no effect)) | M: velvetleaf, herbicidal effect grade (velvetleaf [11]): 0 (Herbicidal rate of 5% or less (almost no effect)) | Herbicidal effect by foliage application, J: blackgrass (blackgrass [12]): 0 (Herbicidal rate of 5% or less (almost no effect)) | Herbicidal effect by foliage application, P: chickweed (chickweed [13]): 5 (Herbicidal rate of 90% or more (almost completely withered)) | P: chickweed, herbicidal effect grade (chickweed [14]): 3 (Herbicidal rate of 40% or more and less than 70%) | herbicidal effect on Chinese sprangletop (D) (Chinese sprangletop): 0 (Herbicidal rate of 5% or less (almost no effect)) | Herbicidal effect, B: Japanese bulrush (Japanese bulrush): 2 (Herbicidal rate of 20% or more and less than 40%) | L: windgrass, herbicidal effect grade (windgrass [15]): 0 (Herbicidal rate of 5% or less (almost no effect)) | herbicidal effect on barnyard grass (H) (barnyard grass [16]): 2 (Herbicidal rate of 20% or more and less than 40%) | I: wild oat, herbicidal effect grade (wild oat [17]): 0 (Herbicidal rate of 5% or less (almost no effect)) | G: green foxtail, herbicidal effect grade (green foxtail [18]): 1 (Herbicidal rate of 5% or more and less than 20%) | R: persian speedwell, herbicidal effect grade (persian speedwell [19]): 3 (Herbicidal rate of 40% or more and less than 70%) | F: southern crabgrass, herbicidal effect grade (southern crabgrass [20]): 0 (Herbicidal rate of 5% or less (almost no effect)) | Herbicidal effect by foliage application, F: southern crabgrass (southern crabgrass [21]): 0 (Herbicidal rate of 5% or less (almost no effect)) | Herbicidal effect by foliage application, O: lambsquarters (lambsquarters [22]): 3 (Herbicidal rate of 40% or more and less than 70%) | Herbicidal effect by foliage application, K: Italian ryegrass (Italian ryegrass [23]): 0 (Herbicidal rate of 5% or less (almost no effect)) | Herbicidal effect by foliage application, N: redroot pigweed (redroot pigweed [24]): 1 (Herbicidal rate of 5% or more and less than 20%) | H: barnyard grass, herbicidal effect grade (barnyard grass [25]): 0 (Herbicidal rate of 5% or less (almost no effect))
